# From patent publication US12029715B2, “Precursor compounds for providing retinoids of the vitamin A5 pathway and uses thereof” (UNIVERSITY OF DEBRECEN, priority 2015, dated 2024)
# “Also recorded” adds a separate entry of the source.
# Columns and labels:
# C57BL/6N mice [1] = test: Chronic social defeat stress model, sucrose preference test; format: in vivo, mouse; settings: stressed mice; for sucrose preference deficit, treatments during stress protocol: dose not given at the place
# Description: This task, designed to measure hedonic behaviors in mice is based on the palatable nature of sucrose observed in a number of mouse strains. On the first day of the test, sucrose-naive mice were placed in individual cages at 11 am and left there with water and food for habituation period. At 5 pm one water bottle was replaced with two bottles: one containing water and another 0.8% sucrose solution. Three hours later (8 pm) the bottles were weighed to measure liquid consumption and were replaced in cages until morning. The measures of an overnight consumption were then carried out for additional day to evaluate sucrose preference. Mice were not water deprived at any moment, in order to measure spontaneous sucrose preference and exclude any potential emotional confounds induced by stress of water deprivation. The sucrose preference was expressed as the percent of sucrose solution consumed with respect to total liquid consumption.
# (§1) Social defeat stress procedure was a modified version of the protocol previously described (Berton, McClung et al. 2006). C57BL/6N mice were defeated chronically for 10 consecutive days. Every day they were exposed to the physical contact with an unfamiliar CD1 aggressor in its home cage for maximal interaction time of 5 minutes. After each session of physical stress, C57BL/6N and CD1 mice were separated by a perforated wall and maintained in sensory contact for 24 h. After the last session of stress, mice were transferred into new cages and housed separately throughout the behavioral tests period. C57BL/6N control mice, similarly to the experimental animals, were housed two per cage separated by a metal perforated wall. Every day, they were exposed to the physical contact for 5 minutes.
# For behavioral analysis, 9CDHROL and 9CDHBC were dissolved in ethanol, and then mixed with sunflower oil, so that the final solution contained 3% ethanol. Vehicle treatments consisted of 3% ethanol solution in sunflower oil. For memory studies treatments with 9CDHRA were administered by intraperitoneal injections at volume/weight ratio 3 ml/kg at 7 am and 7 hours before the beginning of testing. For tests with animal model of chronic social defeat, different treatments were administered […] day of stress protocol immediately after the stress session starting from day 1 of the stress protocol.
# This task, designed to measure hedonic behavior in mice (Moreau, 1997), is based on the palatable nature of sucrose observed in a number of mouse strains. On the first day of the test, sucrose-naive mice were placed in individual cages at 11 am and left there with water and food for habituation period. At 5 pm one water bottle was replaced with two bottles: one containing water and another 0.8% sucrose solution. Three hours later (8 pm) the bottles were weighed to measure liquid consumption and were replaced in cages until morning. The measures of an overnight consumption were then carried out for additional day to evaluate sucrose preference. Mice were not water deprived at any moment, in order to measure spontaneous sucrose preference and exclude any potential emotional confounds induced by stress of water deprivation. The sucrose preference was expressed as the percent of sucrose solution consumed with respect to total liquid consumption.
# Social defeat stress procedure was a modified version of the protocol previously described (Berton et al. 2006). C57BL/6N mice were defeated chronically for 10 consecutive days. […]
# C57BL/6N mice [2] = test: Chronic social defeat stress model, forced swim test; format: in vivo, mouse
# Description: (§2) The forced swim paradigm was carried out between 1 pm and 4 pm in a 3-litre glass beaker half-filled with water at 22-23° C. (the water depth was 17 cm). All mice were tested only once in this task. To this end, each mouse was lowered gently into the water and the time of immobility was scored during a 6-minute testing period. The mouse was judged immobile when it floated in an upright position and made only small movements to keep its head above the water. After 6 min, the mouse was taken out of the water, left to dry under a red light lamp and returned to its home cage. The immobility scores of each animal were used as an index of despair behavior.
# as §1
# For behavioral analysis, 9CDHROL and 9CDHBC were dissolved in ethanol, and then mixed with sunflower oil, so that the final solution contained 3% ethanol. Vehicle treatments consisted of 3% ethanol solution in sunflower oil. For memory studies treatments with 9CDHRA were administered by intraperitoneal injections at volume/weight ratio 3 ml/kg at 7 am and 7 hours before the beginning of testing. For tests with animal model of chronic social defeat, different treatments were administered by intraperitoneal injections at volume/weight ratio 3 ml/kg at 10 mg/kg for each substance between 5-6 pm every second day of stress protocol immediately after the stress session starting from day 1 of the stress protocol.
# as §2, with “paradigm (Dalvi and Lucki, 1999)” for “paradigm”, “2-litre” for “3-litre”
# as §1, with “(Berton” for “(Berton, McClung”, “C57BL/6N control mice, similarly to the experimental animals, were housed two per cage separated by a metal perforated wall. Every day, they were exposed to the physical contact for 5 minutes.” left out
Compound,sucrose preference (anhedonia) (C57BL/6N mice [1]; 1 mg/kg),"sucrose preference deficit, treatments during stress protocol (C57BL/6N mice [1])","immobility time versus stressed, nontreated mice (C57BL/6N mice [2]; 3 mg/kg)","immobility time in the forced swim test (C57BL/6N mice [2]; stressed mice, 1 or 3 mg/kg during the stress protocol)","sucrose preference (anhedonia) (C57BL/6N mice [1]; 10 mg/kg i.p. every second day of stress protocol, 10 mg/kg)","immobility time in the forced swim test (C57BL/6N mice [2]; stressed mice, 10 mg/kg i.p. every second day of stress protocol, 10 mg/kg)","immobility time in the forced swim test, compared with 9CDHRA (C57BL/6N mice [2]; stressed mice, UVI2108 during the stress protocol)"
"CC(C=CC1=C(C)CCCC1(C)C)=CC=CC(C)CC(=O)O (stereo not drawn) [9CDHRA, 9-cis-13,14-dihydroretinoic acid]",Anhedonia was abolished,prevented,displayed anti-despair effects,decreased such immobility in stressed mice in a dose dependently manner; also recorded: efficiently normalized immobility time,,,
"CC1=C(/C=C/C(C)=C\C=C\C(C)CCO)C(C)(C)CCC1 (stereo not drawn) [9CDHROL, 9-cis-13,14-dihydroretinol]",,,,,prevented; also recorded: Anhedonia was abolished,decreased such immobility; also recorded: efficiently normalised immobility time,
"CC1(C)CCC(C)(C)c2cc(C3(c4ccc(C(=O)O)cc4)OCCO3)ccc21 [UVI2108, reference compound]",,prevented; also recorded: activities similar to 9CDHRA,,,,,comparable
